Data from PMC8476055, “Synthesis and Biological Activity of Triterpene–Coumarin Conjugates” (Journal of Natural Products, 2021).

Tests used:
[1] = system: Hep G2 human hepatocyte carcinoma cells; experiment: MTT cell proliferation assay, Hep G2 cells; assay type: cell-based; settings: HepG2, 72 h treatment, untreated control = 100% viability, read-out: IC50, growth inhibition of Hep G2 cells
Procedure: (§1) These studies were performed using a 3-(4,5-dimethylthiazol-2-yl)-2,5-diphenyltetrazolium bromide (MTT) assay, with increasing concentration levels of each compound (0–200 μg/mL). Cell viability was determined after treatment for 72 h, by absorption of a formazan dye.
(§2) […] ATTC HTB-38), Hep G2 human hepatocyte carcinoma cells (ECACC 85011430), nontumor human epithelial lung fibroblast cells HPF (ScienCell catalog (cat.) no. 3300), nontumor rat ileum cells IEC-18 (ECACC no. 88011801), and nontumor human embryo liver cells (ECACC 89121403) were cultured in DMEM medium supplemented with 2 mM glutamine, 10% heat-inactivated fetal bovine serum (FCS), 10.000 units/mL penicillin, and […]. These cells were incubated at 37 °C in an atmosphere of 5% CO2 and 95% humidity. The culture media were changed every 48 h, and the confluent cultures were separated with a trypsin solution (0.25% EDTA). Subconfluent monolayer cells were used in all experiments. All cell lines used were provided by the cell bank of the University of Granada (Spain).
(§3) The effect of the synthesized compounds on the viability of tumor cells was assessed using an MTT assay, based on the ability of living cells to cleave the tetrazolium ring, thus producing formazan, which absorbs at 570 nm. […] For an evaluation of the cytotoxic effects of these compounds, the cells were seeded in 96-well plates at an initial density of 5 × 10^3 B16–F10 cells, 6 × 10^3 HT29 cells, 15 × 10^3 Hep G2 cells, 8 × 10^3 HPF cells, 15 × 10^3 IEC-18 cells, and 11 × 10^3 WRL68 cells, per well. After incubation for 24 h, the cells were treated with the synthesized compounds in triplicate, at different concentrations (0–200 μg/mL), and incubated for 72 h. Thereafter, 100 μL of MTT solution (0.5 mg/mL) were added to each well. After 2 h of incubation, the cells were washed twice with phosphate buffered saline (PBS), and the formazan was resuspended in 100 μL of DMSO. Relative cell viability, with respect to untreated control cells, was measured by absorbance at 550 nm on an ELISA plate reader (Tecan Sunrise MR20-301, TECAN, Austria). […] These experiments were measured and compared to the control after 72 h of treatment.

[2] = system: HT29 human colon adenocarcinoma cells; experiment: MTT cell proliferation assay, HT29 cells; assay type: cell-based; settings: HT-29, 72 h treatment, untreated control = 100% viability, read-out: IC50, growth inhibition of HT29 cells
Procedure: as §1, §2, §3

[3] = system: B16–F10 murine melanoma cells; experiment: MTT cell proliferation assay, B16–F10 cells; assay type: cell-based; settings: Mus musculus, 72 h treatment, untreated control = 100% viability, read-out: IC50, growth inhibition of B16–F10 cells
Procedure: as §1, §2, §3

[4] = system: B16-F10, HT29, and Hep G2 cancer cell lines; experiment: MTT assay, statements over the three cancer cell lines; assay type: cell-based; settings: 72 h, read-out: IC50 (cytotoxicity), cell line not distinguished
Procedure: as §1, with “dye. […] In these three cancer cell lines, the concentration of the compounds that reduced the response by half (IC50) was determined (Table 1).” for “dye.”
The effect of the synthesized compounds on the viability of tumor cells was assessed using an MTT assay, based on the ability of living cells to cleave the tetrazolium ring, thus producing formazan, which absorbs at 570 nm. The MA conjugates (1–12) were assayed against the selected cancer cell lines. For an evaluation of the cytotoxic effects of these compounds, the cells were seeded in 96-well plates at an initial density of 5 × 10^3 B16–F10 cells, 6 × 10^3 HT29 cells, 15 × 10^3 Hep G2 cells, 8 × 10^3 HPF cells, 15 × 10^3 IEC-18 cells, and 11 × 10^3 WRL68 cells, per well. After incubation for 24 h, the cells were treated with the synthesized compounds in triplicate, at different concentrations (0–200 μg/mL), and incubated for 72 h. […] Relative cell viability, with respect to untreated control cells, was measured by absorbance at 550 nm on an ELISA plate reader (Tecan Sunrise MR20-301, TECAN, Austria). […] These experiments were measured and compared to the control after 72 h of treatment.

Row | SMILES | IC50 [1] | IC50 [2] | melting point | IC50 [3] | IC50 [4]
1 | CC1(C)CC[C@]2(C(=O)NCCCCCCNC(=O)/C=C/c3ccc(O)cc3)CC[C@]3(C)C(=CC[C@@H]4[C@@]5(C)C[C@@H](O)[C@H](O)C(C)(C)[C@@H]5CC[C@]43C)[C@@H]2C1 [Compound 8, 2α,3β-Dihydroxy-N-(6′-((E)-3″-(4‴-hydroxyphenyl)acrylamido)hexyl)olean-12-en-28-amide] | > 10 µM | > 10 µM | 76 to 78 °C | > 10 µM | –
2 | CC1(C)CC[C@]2(C(=O)NCCCCCCNC(=O)Cc3cc(=O)oc4cc(O)ccc34)CC[C@]3(C)C(=CC[C@@H]4[C@@]5(C)C[C@@H](O)[C@H](O)C(C)(C)[C@@H]5CC[C@]43C)[C@@H]2C1 [Compound 5, 2α,3β-Dihydroxy-N-(6′-(2″-(7‴-hydroxy-2‴-oxo-2‴H-chromen-4‴-yl)acetamido)hexyl)olean-12-en-28-amide] | > 10 µM | > 10 µM | 139 to 141 °C | > 10 µM | –
3 | CC1(C)CC[C@]2(C(=O)NCCCCCCCCCCNC(=O)/C=C/c3ccc(O)cc3)CC[C@]3(C)C(=CC[C@@H]4[C@@]5(C)C[C@@H](O)[C@H](O)C(C)(C)[C@@H]5CC[C@]43C)[C@@H]2C1 [Compound 9, 2α,3β-Dihydroxy-N-(10′-((E)-3″-(4‴-hydroxyphenyl)acrylamido)decyl)olean-12-en-28-amide] | > 10 µM | > 10 µM | 104 to 106 °C | > 10 µM | –
4 | O=C(O)/C=C/c1ccc(O)cc1 [PCA, p-coumaric acid, reference compound] | > 10 µM | > 10 µM | – | > 10 µM | –
5 | CC1(C)CC[C@]2(C(=O)NCCCCCCCCCCNC(=O)c3cc4ccccc4oc3=O)CC[C@]3(C)C(=CC[C@@H]4[C@@]5(C)C[C@@H](O)[C@H](O)C(C)(C)[C@@H]5CC[C@]43C)[C@@H]2C1 [Compound 3, 2α,3β-Dihydroxy-N-(10′-(2″-oxo-2″H-chromene-3″-carboxamido)decyl)olean-12-en-28-amide] | > 10 µM | > 10 µM | 86 to 88 °C | > 10 µM | –
6 | CC1(C)CC[C@]2(C(=O)O)CC[C@]3(C)C(=CC[C@@H]4[C@@]5(C)C[C@@H](O)[C@H](O)C(C)(C)[C@@H]5CC[C@]43C)[C@@H]2C1 [MA (I), 2α,3β-dihydroxyolean-12-en-28-oic acid, reference compound] | > 10 µM | > 10 µM | – | > 10 µM | –
7 | Cc1cc(=O)oc2cc(NC(=O)[C@]34CCC(C)(C)C[C@H]3C3=CC[C@@H]5[C@@]6(C)C[C@@H](O)[C@H](O)C(C)(C)[C@@H]6CC[C@@]5(C)[C@]3(C)CC4)ccc12 [Compound 11, 2α,3β-dihydroxy-N-(4-methyl-2-oxo-2H-chromen-7-yl)-olean-12-en-28-amide] | > 10 µM | > 10 µM | – | > 10 µM | > 10 µM
8 | CC1(C)CC[C@]2(C(=O)NCCCCCCNC(=O)c3cc4ccccc4oc3=O)CC[C@]3(C)C(=CC[C@@H]4[C@@]5(C)C[C@@H](O)[C@H](O)C(C)(C)[C@@H]5CC[C@]43C)[C@@H]2C1 [Compound 2, 2α,3β-Dihydroxy-N-(6′-(2″-oxo-2″H-chromene-3″-carboxamido)hexyl)olean-12-en-28-amide] | > 10 µM | > 10 µM | 73 to 75 °C | > 10 µM | –
9 | Cc1cc(=O)oc2cc(NC(=O)[C@]34CCC(C)(C)C[C@H]3C3=CC[C@@H]5[C@@]6(C)C[C@@H](OC(=O)c7cc8ccccc8oc7=O)[C@H](OC(=O)c7cc8ccccc8oc7=O)C(C)(C)[C@@H]6CC[C@@]5(C)[C@]3(C)CC4)ccc12 [Compound 12, N-(4‴-Methyl-2‴-oxo-2‴H-chromen-7‴-yl)-2α,3β-bis((2′-oxo-2′H-chromene-3′-carbonyl)oxy)-olean-12-en-28-amide] | > 10 µM | > 10 µM | 206 to 208 °C | > 10 µM | > 10 µM
10 | O=C(O)c1cc2ccccc2oc1=O [C3CA, coumarin-3-carboxylic acid, reference compound] | > 10 µM | > 10 µM | – | > 10 µM | –
11 | O=C(O)Cc1cc(=O)oc2cc(O)ccc12 [HCAA, 7-hydroxycoumarinyl-4-acetic acid, reference compound] | > 10 µM | > 10 µM | – | > 10 µM | –
12 | CC1(C)CC[C@]2(C(=O)NCCCCCCCCCCNC(=O)Cc3cc(=O)oc4cc(O)ccc34)CC[C@]3(C)C(=CC[C@@H]4[C@@]5(C)C[C@@H](O)[C@H](O)C(C)(C)[C@@H]5CC[C@]43C)[C@@H]2C1 [Compound 6, 2α,3β-Dihydroxy-N-(10′-(2″-(7‴-hydroxy-2‴-oxo-2‴H-chromen-4‴-yl)acetamido)decyl)olean-12-en-28-amide] | > 10 µM | > 10 µM | 120 to 122 °C | > 10 µM | –
